Results as given in US9161894B2, “Use of N-(4-methoxyphenyl)-1-phenyl-1H-pyrazol-3-amine and related compounds” (NPHARMAKON, LLC, priority 2011, dated 2015).
Where “and” joins values, the source holds several entries; their conditions need not be identical. Identical values can stand only once. Like-named read-outs stand apart in the source and are kept apart here.

Tests used:
[1] = molecular target: T1, Kit (human) (Homo sapiens, UniProt P10721); assay: Millipore KinaseProfiler radiometric-based filtration binding assay of Kit kinase; details: biochemical assay, read-out: IC50 of Kit kinase inhibition (converted)
T1 construct: purchased EMD Millipore Corporation (KinaseProfiler service)
Protocol: To characterize the inhibitory activity of FPL-62064 against Kit kinase, the drug was tested using Millipore KinaseProfiler radiometric-based filtration binding assay (EMD Millipore Corporation, Billerica, Mass.). In a final reaction volume of 25 μL, Kit (human) (5-10 mU) was incubated with 8 mM MOPS pH 7.0, 0.2 mM EDTA, 10 mM MnCl2, 0.1 mg/mL poly(Glu, Tyr) 4:1, 10 mM MgAcetate and 10 μM [γ^33P-ATP] (specific activity approx. 500 cpm/pmol). The reaction was initiated by the addition of the MgATP mix. After incubation for 40 minutes at room temperature, the reaction was stopped by the addition of 5 μL of a 3% phosphoric acid solution. 10 μL of the reaction was then spotted onto a Filtermat A and washed three times for 5 minutes in 75 mM phosphoric acid and once in methanol prior to drying and scintillation counting.

[2] = molecular target: T2, Kit autophosphorylation in M07e cells (Homo sapiens, UniProt P10721); assay: Cellular Kit phosphorylation assay (ProQinase sandwich ELISA) in M07e cells; format: cell-based
T2 construct: expressing endogenously a high level of wild-type Kit; host or cells: M07e (human acute megakaryoblastic leukemia)
Protocol: The human acute megakaryoblastic leukemia cell line M07e expressing endogenously a high level of wild-type Kit was used in the cellular Kit phosphorylation assay. Stimulation of these cells with human Kit ligand results in receptor tyrosine autophosphorylation. M07e cells were plated in RPMI supplemented with 20% FCS and 10 ng/ml GM-CSF in multiwell cell culture plates. After serum- and growth factor-starvation overnight, cells were incubated with test compounds in serum-free medium. Pre-diluted test samples were added 1:100 to the cell culture medium resulting in a final DMSO concentration of 1%. After 90 minute incubation at 37° C., cells were stimulated with 100 ng/ml Kit ligand for 3 minutes. Cells treated with staurosporine were defined as Low control, and cells treated with solvent alone were defined as High control. Test sample-treated cells, as well as High and Low control, were stimulated in identical manner. Quantification of substrate phosphorylation was assessed in 96 well plates via sandwich ELISA using a substrate specific capture antibody and an anti-phosphotyrosine detection antibody. Raw data were converted into percent substrate phosphorylation relative to High control, set to 100%. […] The equation is a four-parameter logistic equation.

[3] = system: darker human skin (pigmentation); assay: Single-blind pilot clinical study of skin lightening on darker human skin; format: in vivo; details: day 29 / end of study, significance at p<0.05
Protocol: The study protocol and informed consent form were reviewed and approved by the Guangzhou Institutional Review Board (Guangzhou, China) prior to the initiation of the study. […]
The following test formulations were prepared and pH of each formulation was measured, as shown below. […]
Lower back of each subject was used as the test area. Five identically sized application sites (square 3 cm by 3 cm) were marked on the skin of each subject and labeled A through E. 0.1 gram of each material, as measured by extrusion from a syringe, was applied on the appropriate site, using a gloved finger, by a trained technician, guided by markings on the skin and the application site diagram. […]
L value (brightness) reading was taken in duplicate with the spectrophotometer CM-2600d (Konica Minolta, Osaka, Japan). The melanin (M) index reading was taken in duplicate with a Mexameter® MX18 (Courage & Khazaka, Cologne, Germany). […]
Statistical analysis was performed using the computer program SigmaStat 11 (Systat Software Inc., Chicago, Ill., USA) on a Microsoft Windows computer. For all data (Visual Scoring (VS), L value (brightness) (L), and MeIanin Index (M)), the baseline readings were subtracted prior to analysis. […]

[4] = system: human skin; assay: Safety and adverse events at application sites in the pilot clinical study; format: in vivo; details: topical twice daily, any time point during the study
Protocol: Lower back of each subject was used as the test area. Five identically sized application sites (square 3 cm by 3 cm) were marked on the skin of each subject and labeled A through E. 0.1 gram of each material, as measured by extrusion from a syringe, was applied on the appropriate site, using a gloved finger, by a trained technician, guided by markings on the skin and the application site diagram. The application was carried out in an accredited outpatient facility twice daily (morning and afternoon/evening), 6 days per week (with no treatments on Sunday). The procedure was continued in the same manner for the duration of the study. Subjects 2, 3 and 4 entered the study on day 1 (Friday) and each received 48 treatments (no subject missed any of the treatments). Subjects 8, 9, and 10 entered the study on day 4 (Monday) and each received 44 treatments. No subject missed any of the treatments.
In all cases, the condition of the sites treated with Formulation E improved upon termination of the treatment.

[5] = molecular target: T3, 5-lipoxygenase (5-LO) (Homo sapiens, UniProt P09917); details: in vitro assays; cited from earlier work
T3 sequence (P09917 1-674): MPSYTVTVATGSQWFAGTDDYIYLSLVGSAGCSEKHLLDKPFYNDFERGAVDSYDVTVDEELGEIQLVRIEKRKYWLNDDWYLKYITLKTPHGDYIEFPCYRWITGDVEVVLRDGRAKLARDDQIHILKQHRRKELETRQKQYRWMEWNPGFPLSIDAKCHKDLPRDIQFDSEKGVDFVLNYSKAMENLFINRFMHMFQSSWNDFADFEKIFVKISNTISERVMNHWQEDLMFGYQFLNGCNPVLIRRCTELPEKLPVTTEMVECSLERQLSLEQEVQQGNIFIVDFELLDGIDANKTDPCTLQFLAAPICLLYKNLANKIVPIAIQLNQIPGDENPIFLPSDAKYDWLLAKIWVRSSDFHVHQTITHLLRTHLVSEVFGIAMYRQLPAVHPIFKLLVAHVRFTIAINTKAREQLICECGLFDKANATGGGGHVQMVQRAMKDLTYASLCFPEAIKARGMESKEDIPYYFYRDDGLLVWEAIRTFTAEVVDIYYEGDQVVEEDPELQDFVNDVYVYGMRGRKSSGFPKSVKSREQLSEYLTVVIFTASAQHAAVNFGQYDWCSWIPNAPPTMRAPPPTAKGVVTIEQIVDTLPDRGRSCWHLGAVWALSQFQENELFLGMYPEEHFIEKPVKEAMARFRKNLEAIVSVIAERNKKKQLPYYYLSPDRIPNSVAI

[6] = molecular target: prostaglandin synthetase (PGS); details: in vitro assays; cited from earlier work
[7] = molecular target: T4, 5-LO in intact RBL-1 cells (Rattus norvegicus, UniProt P12527); details: cited from earlier work
T4 construct: endogenous in cells; host or cells: RBL-1 cells
T4 sequence (P12527 1-673): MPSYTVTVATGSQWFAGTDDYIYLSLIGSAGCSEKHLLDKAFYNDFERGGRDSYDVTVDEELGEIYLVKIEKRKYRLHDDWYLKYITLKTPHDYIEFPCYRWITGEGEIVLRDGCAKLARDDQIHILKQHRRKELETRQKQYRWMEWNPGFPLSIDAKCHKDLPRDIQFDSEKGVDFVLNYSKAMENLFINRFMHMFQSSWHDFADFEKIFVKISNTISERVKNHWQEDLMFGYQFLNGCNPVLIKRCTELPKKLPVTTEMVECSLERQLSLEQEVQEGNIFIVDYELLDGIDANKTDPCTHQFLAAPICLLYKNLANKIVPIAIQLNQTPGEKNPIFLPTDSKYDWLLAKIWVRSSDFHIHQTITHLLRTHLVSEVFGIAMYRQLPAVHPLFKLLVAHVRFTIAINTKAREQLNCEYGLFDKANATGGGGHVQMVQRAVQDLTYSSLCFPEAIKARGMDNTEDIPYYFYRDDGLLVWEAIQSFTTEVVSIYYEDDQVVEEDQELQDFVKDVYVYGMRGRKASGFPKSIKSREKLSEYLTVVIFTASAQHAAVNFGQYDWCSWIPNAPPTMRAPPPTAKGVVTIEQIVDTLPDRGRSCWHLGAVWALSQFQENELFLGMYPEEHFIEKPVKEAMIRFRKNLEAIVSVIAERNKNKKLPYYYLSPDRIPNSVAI

[8] = system: PGS in intact RBL-1 cells; details: cited from earlier work
[9] = system: UV irradiation-induced erythema; details: guinea pig; cited from earlier work
[10] = system: arachidonic acid-induced ear edema; details: mouse ear; cited from earlier work
[11] = system: rabbit skin edema; details: co-injected with arachidonic acid; cited from earlier work
[12] = system: immune-complex-induced peritoneal inflammation; details: mouse, intraperitoneal, fine suspension in saline; cited from earlier work
[13] = system: carrageenin foot edema; details: rats, oral route, doses up to 200 mg/kg; cited from earlier work
[14] = cited from earlier work
[15] = humans, preliminary data; cited from earlier work

T1 sequence (P10721 26-976): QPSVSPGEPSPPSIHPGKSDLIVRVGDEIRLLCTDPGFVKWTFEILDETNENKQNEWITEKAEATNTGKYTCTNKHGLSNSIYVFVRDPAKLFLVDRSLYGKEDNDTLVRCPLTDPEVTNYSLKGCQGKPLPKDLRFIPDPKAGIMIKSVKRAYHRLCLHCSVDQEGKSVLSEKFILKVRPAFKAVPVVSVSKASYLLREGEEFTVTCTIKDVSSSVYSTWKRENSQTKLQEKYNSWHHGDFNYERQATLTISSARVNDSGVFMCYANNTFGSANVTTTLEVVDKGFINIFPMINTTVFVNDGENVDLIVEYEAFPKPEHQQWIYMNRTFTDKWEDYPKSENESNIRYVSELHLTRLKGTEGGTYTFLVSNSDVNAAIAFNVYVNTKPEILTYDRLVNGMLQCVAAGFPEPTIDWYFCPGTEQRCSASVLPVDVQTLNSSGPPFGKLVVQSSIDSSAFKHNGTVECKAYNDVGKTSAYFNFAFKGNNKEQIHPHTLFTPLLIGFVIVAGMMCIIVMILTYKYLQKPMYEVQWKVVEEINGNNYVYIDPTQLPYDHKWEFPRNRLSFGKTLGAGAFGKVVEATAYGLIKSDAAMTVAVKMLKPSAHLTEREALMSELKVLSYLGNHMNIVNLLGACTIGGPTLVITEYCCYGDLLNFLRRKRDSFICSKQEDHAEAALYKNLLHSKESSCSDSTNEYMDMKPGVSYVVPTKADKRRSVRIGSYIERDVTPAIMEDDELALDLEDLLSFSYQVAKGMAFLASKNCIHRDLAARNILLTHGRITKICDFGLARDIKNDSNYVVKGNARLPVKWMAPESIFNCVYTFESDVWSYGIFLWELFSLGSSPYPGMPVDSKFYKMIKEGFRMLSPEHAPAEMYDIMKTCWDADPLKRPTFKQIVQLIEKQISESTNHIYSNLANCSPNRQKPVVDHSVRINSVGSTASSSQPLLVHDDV
T2 sequence (P10721 26-976): as above
T2 sequence (P21583 26-190 partner limits assumed): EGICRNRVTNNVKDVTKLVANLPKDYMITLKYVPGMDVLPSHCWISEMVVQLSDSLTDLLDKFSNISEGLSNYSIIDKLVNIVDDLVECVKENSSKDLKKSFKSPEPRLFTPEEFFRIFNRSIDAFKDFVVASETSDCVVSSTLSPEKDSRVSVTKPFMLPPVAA

COc1ccc(Nc2ccn(-c3ccccc3)n2)cc1 [FPL-62064, N-(4-methoxyphenyl)-1-phenyl-1H-pyrazol-3-amine]
IC50 ([1]; 10 μM ATP): 6.9 µM and 6.89 µM
IC50 ([1]; same value in mass units): 7.54 µM
IC50 ([2]; 90 min incubation, 100 ng/ml Kit ligand): 1.2 µM
IC50 ([2]; same value in mass units): 1.13 µM
change of the melanin index (M) from baseline compared to the control site (Formulation D, vehicle) [3]: statistically significant decrease
adverse events, sensitivity or irritation at treated sites [4]: well tolerated
IC50 [5]: 3.5 to 11.5 µM
IC50 [6]: 3.1 µM
IC50 [7]: 31 µM
IC50 [8]: 3.6 µM
UV irradiation-induced erythema and prostaglandin E2 formation [9]: inhibited
edema formation and eicosanoid production induced by arachidonic acid [10]: inhibited
edema and eicosanoid formation [11]: inhibited
activity against immune-complex-induced peritoneal inflammation [12]: demonstrated local activity
activity against carrageenin foot edema [13]: inactive
topical bioavailability ([14]; topical): topically bioavailable
metabolism ([14]; upon intravenous administration): rapidly and extensively metabolized
safety and tolerability of topical application [15]: safe and well tolerated
